Laboratory results as given in PubChem BioAssay (NCI).
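Dose response: 5 concentrations. Exposure: 48 h. Format: 96-well plates. Endpoint: linear interpolation; highest concentration if not reached. The concentration for full growth arrest is given as TGI.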

How the values were obtained:
Test in all cases: inhibition of tumour cell growth, NCI panel, 48 h
MALME-3M melanoma = system: MALME-3M melanoma
HOP-62 NSCLC = system: HOP-62 NSCLC
HT29 colon = system: HT29 colon
HL-60(TB) leukemia = system: HL-60(TB) leukemia
786-0 renal = system: 786-0 renal
UACC-62 melanoma = system: UACC-62 melanoma
MDA-MB-435 = system: MDA-MB-435
COLO 205 colon = system: COLO 205 colon
UACC-257 melanoma = system: UACC-257 melanoma
IGROV1 ovarian = system: IGROV1 ovarian
RXF 393 renal = system: RXF 393 renal

O=C(c1ccco1)N(C(=O)N1CCN(c2ccccc2)CC1)S(=O)(=O)c1ccccc1
TGI (MALME-3M melanoma): 99.8 µM | TGI (HOP-62 NSCLC): > 100 µM | TGI (HT29 colon): > 100 µM | TGI (HL-60(TB) leukemia): 45.1 µM | TGI (786-0 renal): > 100 µM | TGI (UACC-62 melanoma): 82 µM | TGI (MDA-MB-435): 56.3 µM | TGI (COLO 205 colon): 82.4 µM | TGI (UACC-257 melanoma): > 100 µM

O=NN(CCF)C(=O)NC1CCSCC1
TGI (MALME-3M melanoma): > 100 µM | TGI (IGROV1 ovarian): > 100 µM | TGI (HOP-62 NSCLC): > 100 µM | TGI (HT29 colon): > 100 µM | TGI (RXF 393 renal): > 100 µM | TGI (HL-60(TB) leukemia): > 100 µM | TGI (UACC-62 melanoma): > 100 µM | TGI (COLO 205 colon): > 100 µM | TGI (UACC-257 melanoma): > 100 µM

CCC1C(c2ccccc2O)c2cc3c(cc2OC1N1CCOCC1)OCO3 (configuration not stated)
TGI (MALME-3M melanoma): 26 µM | TGI (IGROV1 ovarian): 32.3 µM | TGI (HOP-62 NSCLC): 28.8 µM | TGI (HT29 colon): 26.4 µM | TGI (RXF 393 renal): 28.9 µM | TGI (HL-60(TB) leukemia): 38.8 µM | TGI (786-0 renal): 43.9 µM | TGI (UACC-62 melanoma): 27.1 µM | TGI (MDA-MB-435): 28.9 µM | TGI (COLO 205 colon): 30.9 µM | TGI (UACC-257 melanoma): 31.6 µM

NC(Cc1ccc(S(=O)(=O)O)cc1)C(=O)NC(Cc1ccc(S(=O)(=O)O)cc1)C(=O)NC(Cc1ccc(S(=O)(=O)O)cc1)C(=O)NC(Cc1ccc(S(=O)(=O)O)cc1)C(=O)O (configuration not stated)
TGI (MALME-3M melanoma): > 100 µM | TGI (IGROV1 ovarian): > 100 µM | TGI (HOP-62 NSCLC): > 100 µM | TGI (HT29 colon): > 100 µM | TGI (RXF 393 renal): > 100 µM | TGI (786-0 renal): > 100 µM | TGI (UACC-62 melanoma): > 100 µM | TGI (MDA-MB-435): > 100 µM | TGI (COLO 205 colon): > 100 µM | TGI (UACC-257 melanoma): > 100 µM

CCN(CC)C1Oc2cc3c(cc2C(c2cccc(OC)c2OC)C1C)OCO3 (configuration not stated)
TGI (MALME-3M melanoma): 33.5 µM | TGI (IGROV1 ovarian): 29.3 µM | TGI (HOP-62 NSCLC): 30.2 µM | TGI (HT29 colon): 24.8 µM | TGI (RXF 393 renal): 11.8 µM | TGI (HL-60(TB) leukemia): 4.63 µM | TGI (786-0 renal): 22.7 µM | TGI (UACC-62 melanoma): 30.1 µM | TGI (MDA-MB-435): 45.6 µM | TGI (COLO 205 colon): 17 µM | TGI (UACC-257 melanoma): 24.9 µM

C=C1CC[C@@H](C)[C@](C)(CCc2ccoc2)C/C=C\C=C/1C(=O)O
TGI (MALME-3M melanoma): > 100 µM | TGI (IGROV1 ovarian): > 100 µM | TGI (HOP-62 NSCLC): > 100 µM | TGI (HT29 colon): > 100 µM | TGI (RXF 393 renal): 90.8 µM | TGI (HL-60(TB) leukemia): 57 µM | TGI (786-0 renal): > 100 µM | TGI (UACC-62 melanoma): > 100 µM | TGI (MDA-MB-435): > 100 µM | TGI (COLO 205 colon): 49.4 µM | TGI (UACC-257 melanoma): > 100 µM

COC(=O)C1CCC(=O)N1C(c1ccc2c(c1)OCO2)c1cc(OC)c(OC)c(OC)c1 (configuration not stated)
TGI (MALME-3M melanoma): > 100 µM | TGI (IGROV1 ovarian): > 100 µM | TGI (HOP-62 NSCLC): > 100 µM | TGI (HT29 colon): > 100 µM | TGI (HL-60(TB) leukemia): > 100 µM | TGI (786-0 renal): > 100 µM | TGI (UACC-62 melanoma): > 100 µM | TGI (MDA-MB-435): > 100 µM | TGI (COLO 205 colon): > 100 µM | TGI (UACC-257 melanoma): > 100 µM

COc1ccc(C2=NOC(N)(c3ccc(OC)cc3)C2)cc1 (configuration not stated)
TGI (MALME-3M melanoma): > 100 µM | TGI (IGROV1 ovarian): > 100 µM | TGI (HOP-62 NSCLC): > 100 µM | TGI (HT29 colon): > 100 µM | TGI (HL-60(TB) leukemia): > 100 µM | TGI (786-0 renal): > 100 µM | TGI (UACC-62 melanoma): > 100 µM | TGI (MDA-MB-435): > 100 µM | TGI (COLO 205 colon): > 100 µM | TGI (UACC-257 melanoma): > 100 µM

N#C/C(C(=S)NCc1ccccc1)=C(/N)N1CCCC1
TGI (MALME-3M melanoma): > 100 µM | TGI (IGROV1 ovarian): > 100 µM | TGI (HOP-62 NSCLC): > 100 µM | TGI (HT29 colon): > 100 µM | TGI (RXF 393 renal): > 100 µM | TGI (HL-60(TB) leukemia): > 100 µM | TGI (786-0 renal): > 100 µM | TGI (UACC-62 melanoma): > 100 µM | TGI (MDA-MB-435): > 100 µM | TGI (COLO 205 colon): > 100 µM | TGI (UACC-257 melanoma): > 100 µM

Nc1nc2c(C(=O)O)c3ccc([N+](=O)[O-])cc3c(=O)n2c2ccccc12
TGI (MALME-3M melanoma): > 100 µM | TGI (IGROV1 ovarian): 86.6 µM | TGI (HOP-62 NSCLC): > 100 µM | TGI (HT29 colon): > 100 µM | TGI (RXF 393 renal): 45.6 µM | TGI (HL-60(TB) leukemia): > 100 µM | TGI (786-0 renal): 48.8 µM | TGI (UACC-62 melanoma): > 100 µM | TGI (MDA-MB-435): > 100 µM | TGI (COLO 205 colon): > 100 µM
